Results reported in patent US7238864B2, “Acetolactate synthase gene promoter” (priority 2004, dated 2007).

Experiments:
[1] = target: T1, ALS (Oryza sativa subsp. japonica, UniProt Q6K2E8); assay: in vivo ALS assay on cut rice leaves (red colour development); type: cell-based; settings: wild-type rice leaves, 0.15 μM (final concentration) BS, 30 °C under light for 1 day
T1 construct: 150 mg of leaves were sampled, finely cut, and then put into a petri dish; from tissue; host or cells: rice leaves (wild-type plants)
T1 sequence (Q6K2E8 44-644): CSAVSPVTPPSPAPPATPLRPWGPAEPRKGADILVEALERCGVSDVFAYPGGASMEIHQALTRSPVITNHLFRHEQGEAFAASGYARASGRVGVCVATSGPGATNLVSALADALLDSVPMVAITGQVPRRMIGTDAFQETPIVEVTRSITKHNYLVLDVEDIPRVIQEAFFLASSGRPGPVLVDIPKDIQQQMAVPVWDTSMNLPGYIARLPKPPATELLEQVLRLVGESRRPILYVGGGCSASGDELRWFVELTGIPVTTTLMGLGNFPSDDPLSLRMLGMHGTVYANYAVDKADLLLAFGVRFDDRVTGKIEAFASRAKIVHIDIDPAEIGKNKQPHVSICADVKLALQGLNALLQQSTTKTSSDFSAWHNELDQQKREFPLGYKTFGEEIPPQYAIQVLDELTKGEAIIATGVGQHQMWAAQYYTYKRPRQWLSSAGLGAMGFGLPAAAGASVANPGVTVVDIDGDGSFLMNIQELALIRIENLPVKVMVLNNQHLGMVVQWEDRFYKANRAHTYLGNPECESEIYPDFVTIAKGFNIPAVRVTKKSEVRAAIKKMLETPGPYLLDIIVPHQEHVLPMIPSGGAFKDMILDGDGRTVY
Method: (§1) A treatment solution (mixed salts for 25% MS media; 500 μM (final concentration) 1,1-cyclopropanedicarboxilic acid (CPCA); 5 μg Triton X-100; and 0.15 μM (final concentration) BS) was added to the dish, and the resultant was allowed to stand at 30 ° C. under light conditions (140001×) for 1 day. After reaction, the treated leaves were put into a 1.5 ml micro tube and then 200 μl of distilled water containing 0.025% Triton X-100 was added thereto. After the solution had been allowed to stand at 60° C. for 5 minutes, extraction was carried out with sonication (frequency of 40 kHz) for 15 minutes. 200 μl of the supernatant was transferred into another tube, 20 μl of 5% (v/v) sulfuric acid was added thereto, and then the resultant was allowed to stand at 60° C. for 30 minutes. Subsequently, 100 μl of a 0.5% (w/v) creatine and 100 μl of a 5% (w/v) 1-naphthol (prepared at the time of use) dissolved in a 2.5 N NaOH solution were added to the solution. The solution was allowed to stand at 37° C. for 30 minutes. […] It is understood that in the case of wild-type rice, the ALS gene was inhibited by addition of BS so that a red color was not developed.

[2] = target: T2, ALS (Oryza sativa subsp. japonica, UniProt Q6K2E8, S627I/W548L); assay: as above; type: cell-based; settings: leaves of rice with the ALS-promoter-driven BS-resistance (two-point mutated) ALS gene, 0.15 μM BS, 30 °C under light for 1 day
T2 construct: 150 mg of leaves were sampled, finely cut, and then put into a petri dish; from tissue; host or cells: rice leaves (wild-type plants)
Method: as §1

T2 sequence (Q6K2E8 44-644 W548L/S627I): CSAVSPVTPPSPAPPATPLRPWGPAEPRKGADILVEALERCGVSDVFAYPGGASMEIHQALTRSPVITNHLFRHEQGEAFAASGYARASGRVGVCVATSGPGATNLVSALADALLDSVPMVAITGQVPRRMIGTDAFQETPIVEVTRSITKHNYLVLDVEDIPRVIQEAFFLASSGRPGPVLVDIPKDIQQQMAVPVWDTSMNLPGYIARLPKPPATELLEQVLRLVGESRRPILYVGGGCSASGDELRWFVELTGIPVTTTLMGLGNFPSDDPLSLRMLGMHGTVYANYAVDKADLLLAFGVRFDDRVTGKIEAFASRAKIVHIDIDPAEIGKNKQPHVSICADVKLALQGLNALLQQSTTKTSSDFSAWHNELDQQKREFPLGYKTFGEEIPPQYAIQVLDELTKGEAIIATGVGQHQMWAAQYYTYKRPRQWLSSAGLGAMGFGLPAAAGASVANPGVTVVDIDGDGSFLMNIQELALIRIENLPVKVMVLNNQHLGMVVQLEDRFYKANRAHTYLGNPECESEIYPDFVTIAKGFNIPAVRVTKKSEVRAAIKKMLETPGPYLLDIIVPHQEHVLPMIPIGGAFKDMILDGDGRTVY

SMILES: COc1cc(OC)nc(Oc2cccc(Oc3nc(OC)cc(OC)n3)c2C(=O)[O-])n1.[Na+] [BS, Bispyribac sodium salt]
- ALS inhibition by addition of BS (red color development) [1]: inhibited
- ALS activity with BS added (red color development) [2]: development of a red color similar to that developed by a group of rice plants to which no BS had been added
